# Laboratory results from patent publication US20230103631A1, “PEPTIDES AS SELECTIVE GIP RECEPTOR AGONISTS” (Sanofi, priority 2020, published 2023).
# *1 amine or outer side, *2 acyl side, *3 side chain or, on linkers, in order; H or OH if unused. Where a SMILES comes first, the peptide text is derived from it. Side-chain parts run from the residue outwards. [ ]: non-standard residue; d: D form. The star is where a group is joined. C18 diacid = O=C(O)CCCCCCCCCCCCCCCCC(=O)*; γGlu = O=C(O)[C@H](CCC(=O)[*:2])N[*:1]; AEEA = NCCOCCOCC(=O)O; Aib = CC(C)(N)C(=O)O
# What was measured:
# Assay type in all cases: in vivo
# [1] = Pharmacokinetic evaluation in rats; settings: male, SD, rat, plasma; for clearance: read-out: CI (converted)
# Method: (§1) Compounds were administered in a suitable buffer system, e.g. PBS buffer solution at pH7.4 or DPBS solution at concentrations of 0.05, 0.1, 0.5 or 1 mg/ml depending on dose, species and administration volume.
# Male SD rats were dosed 0.25 mg/kg, 0.5 mg/kg or 1 mg/kg intravenously (i.v.) or subcutaneously (s.c.). Blood samples were collected after 0.08, 0.25, 0.5, 1, 2, 4, 8, 24, 32, and 48 h post i.v. application and 0.25, 0.5, 1, 2, 4, 8, 24, 32, and 48 h post s.c. application, respectively. Plasma samples were analyzed after protein precipitation via liquid chromatography mass spectrometry (LC/MS). PK parameters and half-life were calculated using Phoenix-WinNonlin 8.1 using a non-compartmental model and linear trapezoidal interpolation calculation.
# (§2) Pharmacokinetic profiles were determined as described in Methods.
# [2] = Pharmacokinetic evaluation in monkeys; settings: male, cynomolgus monkey, plasma
# Method: as §1
# Male cynomolgus monkeys were dosed 0.1 mg/kg intravenously (i.v.) or subcutaneously (s.c.). Blood samples were collected after 0.083, 0.25, 0.5, 1, 2, 4, 8, 24, 32, 48, and 72 h post i.v. application and 0.5, 1, 2, 4, 8, 24, 48, 72, and 96 h post s.c. application, respectively. Plasma samples were analyzed after protein precipitation via liquid chromatography mass spectrometry (LC/MS). PK parameters and half-life were calculated using Phoenix-WinNonlin 8.1 using a non-compartmental model and linear trapezoidal interpolation calculation.
# as §2
# C57Bl/6 mice = test: Intraperitoneal glucose tolerance test (ipGTT) after s.c. treatment; settings: for Incremental blood glucose concentration AUCi / Blood glucose concentration AUC: mean ± SEM; for Incremental blood glucose concentration AUCi: vehicle +4.93 ± 0.324; for Blood glucose concentration AUC: vehicle +22.15 ± 0.662
# Method: Healthy, normoglycemic male C57Bl/6NCrl mice were ordered in an age of 9-10 weeks with an approximate body weight (BW) of 24-26 g at Charles River Laboratories Deutschland GmbH, 97633 Sulzfeld, Germany. Mice were shipped grouped housed (N=4 per cage), acclimatized for one week and remained grouped housed throughout the entire study. Mice were housed under vivarium conditions that included a 12 h light/dark cycle (light phase 06:00 AM-06:00 PM), mean room temperature of 22±2° C. and a relative mean humidity of 55±10%. All animals had free access to food (Ssniff R/M-H diet) and water prior to study start.
# The primary objective of the study was to investigate the compound-induced lowering of the blood glucose excursion and improvement of glucose tolerance in a mouse ipGTT setting and therefore the primary parameters included blood glucose, delta blood glucose (normalized to the time point just prior to the i.p. glucose challenge, t=0 h) and their respective calculated area under curve (AUC) values. The study was performed as an acute, single dosing study with 6 groups and the male animals were randomly divided to groups of 7-8 mice per group. Dose-dependent pharmacodynamic blood glucose lowering efficacy of the GIPR agonist was analyzed with s.c. injections 6 h before the i.p. glucose load in the dose range from 3 up to 100 nmol/kg and compared to the vehicle group as well as the semaglutide positive control at a dose of 10 nmol/kg.
# In more detail, mice were fed overnight and on the following morning brought to the lab with food removed but ad libitum access to water. Blood samplings (5 μl) were performed at: −6.5, −0.5, 0, 0.17, 0.5, 1, 1.5, 2 and 3 h before and after the glucose bolus of 1 g glucose per kg BW i.p. given at time point t=0 h. On time point t=0.17 h an additional K-EDTA plasma sample from 60-80 μl blood was taken for plasma insulin analysis. Blood was withdrawn from the tip of the tail. The GIPR agonist and semaglutide were dissolved in 10 mM phosphate buffer pH 7.4 with 2.3% glycerol and 0.01% polysorbat 20 (vehicle) and s.c. treatment was performed −6 h before the glucose load (t=0 h) using an injection volume of 5 ml/kg. The injection solutions were freshly prepared prior to the experiment using sterile filtered vehicle solution.
# Blood glucose was determined enzymatically (Gluco-quant® Glucose/HK kit on Roche/Hitachi 912). Plasma insulin was determined using a mouse/rat insulin sandwich immunoassay kit from Meso Scale Discovery.
# All data were collected using Microsoft Excel. None of the data were collected online. The results are expressed as means±standard error of the mean (SEM). As primary study parameters, blood glucose, baseline (time point t=0 h) subtracted delta blood glucose and their respective calculated area under curve (AUC) values were determined. The respective AUC data were calculated using the trapezoid rule for the time period t=0 h until t=2 h.
# The statistical analysis of the ipGTT blood glucose excursion data response following subcutaneous compound or vehicle treatment was performed on the calculated AUC values of blood glucose raw data as well as the calculated AUC values for baseline subtracted delta blood glucose data. In a first step the Levene's test was used to test for equality of variances between groups. Where Levene's test was significant (p s 0.05), a rank transformation of the calculated AUC data was applied to stabilize the variances before ANOVA analysis was conducted. Where Levene's test was not significant (p>0.05) ANOVA was conducted without prior rank transformation. In a second step a One-way ANOVA analysis for factor treatment followed by Dunnett's multiple comparisons test vs. vehicle group was used to test for statistical differences. Different levels of significance were defined as *=p<0.05, **=p<0.001, ***=p<0.0001. All analyses were performed using SAS (version 9.4) under Linux via the interface software EverSt@t V6.1. […]
# [3] = 3 nmol/kg s.c. 6 h before i.p. glucose load
# [4] = 10 nmol/kg s.c. 6 h before i.p. glucose load
# [5] = 30 nmol/kg s.c. 6 h before i.p. glucose load
# [6] = 100 nmol/kg s.c. 6 h before i.p. glucose load
smiles,measurement,setting,value
"CC[C@H](C)[C@H](NC(=O)[C@H](CCCNC(=N)N)NC(=O)[C@H](CC(=O)O)NC(=O)[C@H](CCCCNC(=O)COCCOCCNC(=O)COCCOCCNC(=O)CC[C@H](NC(=O)CCCCCCCCCCCCCCCCC(=O)O)C(=O)O)NC(=O)C(C)(C)NC(=O)[C@@H](NC(=O)[C@H](CO)NC(=O)[C@H](CC(C)C)NC(=O)[C@H](CC(=O)O)NC(=O)[C@H](CO)NC(=O)[C@@H](NC(=O)[C@H](Cc1ccccc1)NC(=O)[C@@H](NC(=O)CNC(=O)[C@H](CCC(=O)O)NC(=O)C(C)(C)NC(=O)[C@@H](N)Cc1ccc(O)cc1)[C@@H](C)O)[C@@H](C)CC)[C@@H](C)CC)C(=O)N[C@@H](Cc1c[nH]cn1)C(=O)N[C@@H](CCC(N)=O)C(=O)NC(C)(C)C(=O)N[C@@H](CCC(=O)O)C(=O)N[C@@H](Cc1ccccc1)C(=O)N[C@H](C(=O)N[C@@H](CCC(=O)O)C(=O)N[C@@H](Cc1c[nH]c2ccccc12)C(=O)N[C@@H](CC(C)C)C(=O)N[C@@H](CC(C)C)C(=O)N[C@@H](C)C(=O)N[C@@H](CCC(N)=O)C(=O)NCC(=O)N1CCC[C@H]1C(=O)N[C@@H](CO)C(=O)N[C@@H](CO)C(=O)NCC(=O)N[C@@H](C)C(=O)N1CCC[C@H]1C(=O)N1CCC[C@H]1C(=O)N1CCC[C@H]1C(=O)N[C@@H](CO)C(N)=O)[C@@H](C)CC [SEQ ID NO: 4, H2N-Y-Aib-E-G-T-F-I-S-D-I-S-I-Aib-K[{AEEA}2-gGlu-C18OH]-D-R-I-H-Q-Aib-E-F-I-E-W-I-L-A-Q-G-P-S-S-G-A-P-P-P-S-NH2] (H-Y[Aib]EGTFISDLSI[Aib]K([AEEA-AEEA-γGlu-C18 diacid])DRIHQ[Aib]EFIEWLLAQGPSSGAPPPS-NH2)",AUC(0-t),"[1]; iv, 0.25 mg/kg i.v.",50200 ng·h/mL
same,Cmax,"[1]; iv, 0.25 mg/kg i.v.",6890 ng/mL
same,half-life,"[1]; iv, 0.25 mg/kg i.v.",738 min
same,clearance,"[1]; iv, 0.25 mg/kg i.v.",4.68 mL/h/kg
same,AUC(0-t),"[1]; sc, 0.5 mg/kg s.c.",44400 ng·h/mL
same,Cmax,"[1]; sc, 0.5 mg/kg s.c.",1270 ng/mL
same,bioavailability,"[1]; sc, 0.5 mg/kg s.c.",52%
same,half-life,"[1]; sc, 0.5 mg/kg s.c.",990 min
"CC[C@H](C)[C@H](NC(=O)[C@H](Cc1ccccc1)NC(=O)[C@H](CCC(=O)O)NC(=O)[C@H](CCC(=O)O)NC(=O)[C@H](CCC(N)=O)NC(=O)[C@H](Cc1c[nH]cn1)NC(=O)[C@@H](NC(=O)[C@H](CCCNC(=N)N)NC(=O)[C@H](CC(=O)O)NC(=O)[C@H](CCCCNC(=O)COCCOCCNC(=O)COCCOCCNC(=O)CC[C@H](NC(=O)CCCCCCCCCCCCCCCCC(=O)O)C(=O)O)NC(=O)C(C)(C)NC(=O)[C@@H](NC(=O)[C@H](CO)NC(=O)[C@H](CC(C)C)NC(=O)[C@H](CC(=O)O)NC(=O)[C@H](CO)NC(=O)[C@@H](NC(=O)[C@H](Cc1ccccc1)NC(=O)[C@@H](NC(=O)CNC(=O)[C@H](CCC(=O)O)NC(=O)C(C)(C)NC(=O)[C@@H](N)Cc1ccc(O)cc1)[C@@H](C)O)[C@@H](C)CC)[C@@H](C)CC)[C@@H](C)CC)C(=O)N[C@@H](CCC(=O)O)C(=O)N[C@@H](Cc1c[nH]c2ccccc12)C(=O)N[C@@H](CC(C)C)C(=O)N[C@@H](CC(C)C)C(=O)N[C@@H](C)C(=O)N[C@@H](CCC(N)=O)C(=O)NCC(=O)N1CCC[C@H]1C(=O)N[C@@H](CO)C(=O)N[C@@H](CO)C(=O)NCC(=O)N[C@@H](C)C(=O)N1CCC[C@H]1C(=O)N1CCC[C@H]1C(=O)N1CCC[C@H]1C(=O)N[C@@H](CO)C(N)=O [SEQ ID NO: 9, H2N-Y-Aib-E-G-T-F-I-S-D-I-S-I-Aib-K[{AEEA}2-gGlu-C18OH]-DRIHQEEFIEWILAQGPSSGAPPPS-NH2] (H-Y[Aib]EGTFISDLSI[Aib]K([AEEA-AEEA-γGlu-C18 diacid])DRIHQEEFIEWLLAQGPSSGAPPPS-NH2)",AUC(0-t),"[1]; iv, 0.25 mg/kg i.v.",54500 ng·h/mL
same,Cmax,"[1]; iv, 0.25 mg/kg i.v.",5600 ng/mL
same,half-life,"[1]; iv, 0.25 mg/kg i.v.",888 min
same,clearance,"[1]; iv, 0.25 mg/kg i.v.",4.19 mL/h/kg
same,AUC(0-t),"[1]; sc, 0.5 mg/kg s.c.",72900 ng·h/mL
same,Cmax,"[1]; sc, 0.5 mg/kg s.c.",2490 ng/mL
same,bioavailability,"[1]; sc, 0.5 mg/kg s.c.",73%
same,half-life,"[1]; sc, 0.5 mg/kg s.c.",1010 min
same,AUC(0-t),"[2]; iv, 0.1 mg/kg i.v.",149 µg·h/mL
same,Cmax,"[2]; iv, 0.1 mg/kg i.v.",6740 ng/mL
same,half-life,"[2]; iv, 0.1 mg/kg i.v.",2.14 days
same,clearance,"[2]; iv, 0.1 mg/kg i.v., read-out: CI (converted)",10.7 mL/day/kg
same,AUC(0-t),"[2]; sc, 0.1 mg/kg s.c.",122 µg·h/mL
same,Cmax,"[2]; sc, 0.1 mg/kg s.c.",1800 ng/mL
same,bioavailability,"[2]; sc, 0.1 mg/kg s.c.",83%
same,half-life,"[2]; sc, 0.1 mg/kg s.c.",2.43 days
same,Incremental blood glucose concentration AUCi,C57Bl/6 mice; [3],+3.41 ± 0.520 mmol/L* 0-2 h
same,Blood glucose concentration AUC,C57Bl/6 mice; [3],+21.07 ± 0.544 mmol/L* 0-2 h
same,Incremental blood glucose concentration AUCi,C57Bl/6 mice; [4],+3.33 ± 0.210 mmol/L* 0-2 h
same,Blood glucose concentration AUC,C57Bl/6 mice; [4],+19.28 ± 0.518 mmol/L* 0-2 h
same,Incremental blood glucose concentration AUCi,C57Bl/6 mice; [5],+2.76 ± 0.268 mmol/L* 0-2 h
same,Blood glucose concentration AUC,C57Bl/6 mice; [5],+18.20 ± 0.662 mmol/L* 0-2 h
same,Incremental blood glucose concentration AUCi,C57Bl/6 mice; [6],+1.90 ± 0.158 mmol/L* 0-2 h
same,Blood glucose concentration AUC,C57Bl/6 mice; [6],+14.81 ± 0.533 mmol/L* 0-2 h
same,i.p. glucose tolerance compared to the vehicle group,"C57Bl/6 mice; single s.c. dose 3-100 nmol/kg, ipGTT in C57Bl/6 mice",significant and dose-dependent improvement
same,minimal effective dose (improvement of i.p. glucose tolerance),"C57Bl/6 mice; single s.c. dose, ipGTT in C57Bl/6 mice",3 to 10 nmol/kg
